According to ChEMBL document CHEMBL1629463, “In vitro anti-rotavirus activity of polyphenol compounds isolated from the roots of Glycyrrhiza uralensis” (Bioorg Med Chem, 2010):
Converted amounts (≈) assume the structure as drawn. The source made the active and inactive calls. The calls are words filed in the database; no cut-off is given here.

Experiments:
Porcine rotavirus [1] = test: Antiviral activity against KJ56-1 Porcine rotavirus G5P[7] infected in african green monkey TF-104 cells assessed as inhibition of viral mRNA synthesis at 40 to 50 uM after 18 hrs by RT-PCR analysis; type: functional, cell-based
[2] = Selectivity index, ratio of CC50 for african green monkey TF-104 cells to EC50 for cytopathic inhibition activity against KJ56-1 Povine rotavirus […]; type: toxicity, cell-based; details: read-out: Ratio CC50/EC50
Porcine rotavirus [3] = test: Antiviral activity against KJ56-1 Porcine rotavirus G5P[7] in human RBC assessed as inhibition of virus-induced hemagglutinination after 1 hr; type: functional
Bovine rotavirus [4] = test: Antiviral activity against KJ56-1 Bovine rotavirus G8P[7] in human RBC assessed as inhibition of virus-induced hemagglutinination after 1 hr; type: functional; details: Rotavirus A
Porcine rotavirus [5] = test: Antiviral activity against KJ56-1 Porcine rotavirus G5P[7] infected in african green monkey TF-104 cells assessed as inhibition of virus-induced cytopathic effect after 72 hrs; type: functional, cell-based; details: TF-104, 72 h
Bovine rotavirus [6] = test: Antiviral activity against KJ56-1 Bovine rotavirus G8P[7] infected in african green monkey TF-104 cells assessed as inhibition of viral mRNA synthesis at 40 to 50 uM after 18 hrs by RT-PCR analysis; type: functional, cell-based
[7] = Cytotoxicity against african green monkey TF-104 cells after 72 hrs by MTT assay; type: cell-based; details: chlorocebus aethiops
[8] = Selectivity index, ratio of CC50 for african green monkey TF-104 cells to EC50 for cytopathic inhibition activity against KJ56-1 Bovine rotavirus G8P[7]; type: toxicity, cell-based; details: read-out: Ratio CC50/EC50
Bovine rotavirus [9] = test: Antiviral activity against KJ56-1 Bovine rotavirus G8P[7] infected in african green monkey TF-104 cells assessed as inhibition of virus-induced cytopathic effect after 72 hrs; type: functional, cell-based; details: Rotavirus A, TF-104, 72 h
Porcine rotavirus [10] = test: Antiviral activity against KJ56-1 Porcine rotavirus G5P[7] infected in african green monkey TF-104 cells after 72 hrs by virucidal assay; type: functional, cell-based; details: Rotavirus A, TF-104, 72 h
Bovine rotavirus [11] = test: Antiviral activity against KJ56-1 Bovine rotavirus G8P[7] infected in african green monkey TF-104 cells after 72 hrs by virucidal assay; type: functional, cell-based; details: Rotavirus A, TF-104, 72 h
[12] = Selectivity index, ratio of CC50 for african green monkey TF-104 cells to EC50 for virucidal activity against KJ56-1 Povine rotavirus […]; type: toxicity, cell-based; details: read-out: Ratio CC50/EC50
Bovine rotavirus [13] = test: Antiviral activity against KJ56-1 Bovine rotavirus G8P[7] infected in african green monkey TF-104 cells assessed as inhibition of viral replication at 30 uM after 24 hrs by immunofluorescence assay; type: functional, cell-based
Porcine rotavirus [14] = test: Antiviral activity against KJ56-1 Porcine rotavirus G5P[7] infected in african green monkey TF-104 cells assessed as inhibition of viral replication at 30 uM after 24 hrs by immunofluorescence assay; type: functional, cell-based
[15] = Selectivity index, ratio of CC50 for african green monkey TF-104 cells to EC50 for KJ56-1 Bovine rotavirus G8P[7] by virucidal assay; type: toxicity, cell-based; details: read-out: Ratio CC50/EC50

SMILES	inhibition (Porcine rotavirus [1])	selectivity ratio [2]	MIC (Porcine rotavirus [3])	MIC (Bovine rotavirus [4])	EC50 (Porcine rotavirus [5])	inhibition (Bovine rotavirus [6])	CC50 at 72 h [7]	selectivity ratio [8]	EC50 (Bovine rotavirus [9])	EC50 (Porcine rotavirus [10])	EC50 (Bovine rotavirus [11])	selectivity ratio [12]	inhibition (Bovine rotavirus [13])	inhibition (Porcine rotavirus [14])	selectivity ratio [15]
COc1cc(O)ccc1C(=O)/C=C/c1ccc(O)cc1	Active	5.6	inactive	17.2 µM (≈ 4.65 µg/mL)	24 µM	Active	> 133 µM	> 3.2	41.8 µM	69.5 µM	–	–	–	–	–
O=c1c(-c2ccc(O)cc2)coc2cc(O)cc(O)c12 [GENISTEIN]	–	–	–	–	–	–	174 µM	1.8	99.6 µM	–	–	–	–	–	–
COc1c(CC=C(C)C)c(O)cc2c1C[C@H](c1ccc(O)cc1O)CO2 [GLYASPERIN C]	Active	3.6	17.2 µM (≈ 6.13 µg/mL)	17.2 µM (≈ 6.13 µg/mL)	12.1 µM	Active	42.8 µM	3.6	12 µM	18.7 µM	14.7 µM	2.3	Active	Active	2.9
COc1cc2c(c(OC)c1CC=C(C)C)C[C@H](c1ccc(O)cc1O)CO2 [GLYASPERIN D]	Active	–	17.2 µM (≈ 6.37 µg/mL)	17.2 µM (≈ 6.37 µg/mL)	–	Active	68.1 µM	1.6	42 µM	–	17.6 µM	–	Active	inactive	5.7
COc1cc2oc(=O)c(-c3ccc(O)cc3O)cc2c(OC)c1CC=C(C)C [GLYCYRIN]	–	–	17.2 µM (≈ 6.58 µg/mL)	17.2 µM (≈ 6.58 µg/mL)	–	–	> 133 µM	–	> 100 µM	–	88.1 µM	–	–	–	> 1.5
COc1c(CC=C(C)C)c(O)cc2oc(-c3ccc(O)cc3O)cc12 [LICOCOUMARONE]	Active	1.3	17.2 µM (≈ 5.85 µg/mL)	17.2 µM (≈ 5.85 µg/mL)	43.6 µM	Active	54.5 µM	2.5	22.3 µM	26.1 µM	37.8 µM	2.1	–	–	1.4
CC(C)=CCc1c(O)cc2oc(-c3ccc(O)cc3)c(O)c(=O)c2c1O [LICOFLAVONOL]	Active	–	17.2 µM (≈ 6.09 µg/mL)	17.2 µM (≈ 6.09 µg/mL)	–	Active	85.3 µM	3.3	25.9 µM	36.8 µM	15.5 µM	2.3	Active	inactive	5.5
